Where a name gives a salt, the structure may show the parent alone.

The target of this test is T1, Full length human recombinant PIKFYVE (Homo sapiens, UniProt Q9Y2I7).
T1 construct: Full length human recombinant PIKFYVE; purchased Carna Biosciences (Kobe, Japan); host or cells: baculovirus expression system
T1 sequence (Q9Y2I7 whole entry): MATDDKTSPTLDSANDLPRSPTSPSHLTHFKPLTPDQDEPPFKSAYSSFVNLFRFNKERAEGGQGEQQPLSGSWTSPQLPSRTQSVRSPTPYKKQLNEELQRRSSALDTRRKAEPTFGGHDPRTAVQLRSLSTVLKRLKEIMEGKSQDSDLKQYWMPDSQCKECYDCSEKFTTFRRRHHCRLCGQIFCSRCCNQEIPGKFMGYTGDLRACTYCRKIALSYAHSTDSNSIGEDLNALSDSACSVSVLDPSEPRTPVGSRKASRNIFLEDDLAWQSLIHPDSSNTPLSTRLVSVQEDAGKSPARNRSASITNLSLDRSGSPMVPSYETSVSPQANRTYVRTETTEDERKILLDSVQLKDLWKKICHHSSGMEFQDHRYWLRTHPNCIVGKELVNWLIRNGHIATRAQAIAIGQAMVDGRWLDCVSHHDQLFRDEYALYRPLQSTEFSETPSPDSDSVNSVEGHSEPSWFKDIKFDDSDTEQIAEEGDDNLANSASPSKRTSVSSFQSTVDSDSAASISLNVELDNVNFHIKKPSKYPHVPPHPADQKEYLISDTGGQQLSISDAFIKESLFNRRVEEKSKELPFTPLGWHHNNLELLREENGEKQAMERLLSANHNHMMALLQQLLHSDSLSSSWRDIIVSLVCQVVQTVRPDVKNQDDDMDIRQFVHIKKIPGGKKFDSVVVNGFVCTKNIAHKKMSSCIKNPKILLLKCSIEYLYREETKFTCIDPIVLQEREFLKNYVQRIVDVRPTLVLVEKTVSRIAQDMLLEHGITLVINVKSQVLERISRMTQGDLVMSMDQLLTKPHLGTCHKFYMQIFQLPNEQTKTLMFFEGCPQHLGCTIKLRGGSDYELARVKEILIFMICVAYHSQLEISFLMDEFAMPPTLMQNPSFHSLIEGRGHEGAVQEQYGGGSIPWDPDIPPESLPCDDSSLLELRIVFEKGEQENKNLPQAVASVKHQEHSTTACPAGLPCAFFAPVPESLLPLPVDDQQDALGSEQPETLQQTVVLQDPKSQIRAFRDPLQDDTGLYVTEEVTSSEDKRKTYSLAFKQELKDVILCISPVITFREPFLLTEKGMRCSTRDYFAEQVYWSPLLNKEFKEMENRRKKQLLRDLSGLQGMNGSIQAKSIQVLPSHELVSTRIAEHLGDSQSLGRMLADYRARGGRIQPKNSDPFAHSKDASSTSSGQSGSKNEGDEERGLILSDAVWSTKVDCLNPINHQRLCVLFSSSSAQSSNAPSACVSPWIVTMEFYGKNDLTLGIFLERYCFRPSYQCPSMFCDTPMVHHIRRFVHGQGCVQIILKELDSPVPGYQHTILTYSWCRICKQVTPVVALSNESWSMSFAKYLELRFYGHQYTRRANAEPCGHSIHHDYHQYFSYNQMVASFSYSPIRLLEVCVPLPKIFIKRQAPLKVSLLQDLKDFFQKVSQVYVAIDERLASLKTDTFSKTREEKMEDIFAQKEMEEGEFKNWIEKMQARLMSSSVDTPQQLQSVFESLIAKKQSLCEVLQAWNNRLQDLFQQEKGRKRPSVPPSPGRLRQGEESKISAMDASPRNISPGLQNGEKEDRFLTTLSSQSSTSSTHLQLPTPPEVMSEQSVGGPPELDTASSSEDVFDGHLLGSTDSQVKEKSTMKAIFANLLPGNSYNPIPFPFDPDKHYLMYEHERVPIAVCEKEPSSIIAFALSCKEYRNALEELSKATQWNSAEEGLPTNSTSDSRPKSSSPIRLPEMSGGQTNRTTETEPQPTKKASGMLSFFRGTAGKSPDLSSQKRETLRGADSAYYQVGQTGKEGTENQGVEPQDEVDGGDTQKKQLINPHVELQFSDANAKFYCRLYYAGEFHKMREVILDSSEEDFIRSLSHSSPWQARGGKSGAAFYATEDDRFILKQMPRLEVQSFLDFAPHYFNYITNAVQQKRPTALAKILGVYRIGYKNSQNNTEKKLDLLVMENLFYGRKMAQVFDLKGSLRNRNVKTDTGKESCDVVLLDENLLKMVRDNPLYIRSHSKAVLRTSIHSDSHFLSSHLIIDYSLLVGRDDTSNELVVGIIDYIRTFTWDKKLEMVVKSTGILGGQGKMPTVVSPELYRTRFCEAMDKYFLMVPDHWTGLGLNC
The test can be described thus: Inhibition of PIKfyve (microfluidic electrophoresis kinase assay, PI3P/PS substrate). The test is classed as biochemical. The following applies: 12 concentrations. In short, it runs like this:
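GST-tagged full-length human PIKFYVE (baculovirus; 2 nM) with fluorescent PI3P/PS (1 μM PI3P) and […] in pH 7.5 HEPES with Mg2+/Mn2+, 1% DMSO, 3 h at room temperature. PI(3,5)P product/substrate ratio read by microfluidic electrophoresis; 12-point % inhibition versus no-enzyme and DMSO controls.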
Take `c1ccc(-c2cc(Nc3nc(N4CCOCC4)c4oc(-c5cccnc5)cc4n3)[nH]n2)cc1` [Compound 29, 4-morpholino-N-(5-phenyl-1H-pyrazol-3-yl)-6-(3-pyridyl)furo[3,2-d]pyrimidin-2-amine, hydrogen chloride]: the IC50 was determined as 1 nM. Then `O=C(NC1CCOCC1)c1cc2nc(-n3ccc(-c4cccc(Br)c4)n3)nc(N3CCOCC3)c2o1` [Compound 220, 2-[3-(3-bromophenyl)pyrazol-1-yl]-4-morpholino-N-tetrahydropyran-4-yl-furo[3,2-d]pyrimidine-6-carboxamide], with 16.3 nM; and `c1cc(-c2cc3nc(Nc4cc(CC5CCC5)n[nH]4)nc(N4CCOCC4)c3o2)ccn1` [Compound 71], with 79.8 nM. Then `CN(C)CCCCNC(=O)c1cc2nc(-n3cc(-c4ccccc4)cn3)nc(N3CCOCC3)c2o1` [Compound 167], with 122 nM; and `O=C(O)c1cc2nc(Nc3cc(-c4ccccc4)[nH]n3)nc(N3CCOCC3)c2o1` [Compound 141, 4-morpholino-2-((5-phenyl-1H-pyrazol-3-yl)amino)furo[3,2-d]pyrimidine-6-carboxylic acid], with 252 nM.

With `c1ccc(-c2cnc(Nc3nc(N4CCOCC4)c4oc(-c5ccncc5)cc4n3)o2)cc1` [Compound 46, 4-morpholino-N-(5-phenyloxazol-2-yl)-6-(4-pyridyl)furo[3,2-d]pyrimidin-2-amine, hydrogen chloride], the IC50 was found to be 107 nM.

`CS(=O)(=O)NC(=O)c1cc2nc(Nc3cc(-c4ccccc4)n[nH]3)nc(N3CCOCC3)c2o1` [Compound 65, N-(methylsulfonyl)-4-morpholino-2-((3-phenyl-1H-pyrazol-5-yl)amino)furo[3,2-d]pyrimidine-6-carboxamide hydrochloride]: the IC50 was 235 nM. In the case of `Cc1cccc(-c2ccn(-c3nc(N4CCOCC4)c4oc(C(=O)NS(C)(=O)=O)cc4n3)n2)c1` [Compound 98, N-(methylsulfonyl)-4-morpholino-2-(3-(m-tolyl)-1H-pyrazol-1-yl)furo[3,2-d]pyrimidine-6-carboxamide] it was 78.7 nM; in that of `CN(C)CCCNC(=O)c1cc2nc(-n3cc(-c4ccccc4)cn3)nc(N3CCOCC3)c2o1` [Compound 168, N-(3-(dimethylamino)propyl)-4-morpholino-2-(4-phenyl-1H-pyrazol-1-yl)furo[3,2-d]pyrimidine-6-carboxamide], 62.1 nM; in that of `CN1CCCC(c2cc3nc(Nc4cc(-c5ccncc5)n[nH]4)nc(N4CCOCC4)c3o2)C1` (stereo not shown) [Compound 37], ≥ 10000 nM.

Turning to `c1cc(-c2cc3nc(Nc4cc(CC5CC5)n[nH]4)nc(N4CCOCC4)c3o2)ccn1` [Compound 69, N-(3-(cyclopropylmethyl)-1H-pyrazol-5-yl)-4-morpholino-6-(pyridin-4-yl)furo[3,2-d]pyrimidin-2-amine hydrochloride], the IC50 turned out to be 338 nM. Then `Cc1ccc(-c2cc(Nc3nc(N4CCOCC4)c4oc(-c5ccncc5)cc4n3)[nH]n2)cc1` [Compound 4, 4-morpholino-N-[5-(p-tolyl)-1H-pyrazol-3-yl]-6-(4-pyridyl)furo[3,2-d]pyrimidin-2-amine, hydrogen chloride], with 30.9 nM.

For the compound `Cc1cc(-c2cc3nc(-n4cc(-c5ccccc5)cn4)nc(N4CCOCC4)c3o2)nn1CCN(C)C` [Compound 183, N,N-dimethyl-2-[5-methyl-3-[4-morpholino-2-(4-phenylpyrazol-1-yl)furo[3,2-d]pyrimidin-6-yl]pyrazol-1-yl]ethanamine], the IC50 was determined as 11.8 nM.

For `Cc1cc(-c2cc3nc(-n4ccc(-c5ccccc5)n4)nc(N4CCOCC4)c3o2)nn1CCN(C)C` [Compound 177, N,N-dimethyl-2-[5-methyl-3-[4-morpholino-2-(3-phenylpyrazol-1-yl)furo[3,2-d]pyrimidin-6-yl]pyrazol-1-yl]ethanamine], the IC50 is 41.3 nM. In the case of `c1ccc(-c2ccn(-c3nc(N4CCOCC4)c4oc(-c5ccncc5)cc4n3)n2)cc1` [Compound 158, 4-morpholino-2-(3-phenylpyrazol-1-yl)-6-(4-pyridyl)furo[3,2-d]pyrimidine] it was 160 nM. As to `Cc1cccc(-c2ccn(-c3nc(N4CCOCC4)c4oc(-c5cc(C)n(CCN(C)C)n5)cc4n3)n2)c1` [Compound 178, N,N-dimethyl-2-[5-methyl-3-[4-morpholino-2-[3-(m-tolyl)pyrazol-1-yl]furo[3,2-d]pyrimidin-6-yl]pyrazol-1-yl]ethanamine], the IC50 stood at 0.9 nM. Then `O=C(NCC1COC1)c1cc2nc(-n3ccc(-c4ccccc4)n3)nc(N3CCOCC3)c2o1` [Compound 159, 4-morpholino-N-(oxetan-3-ylmethyl)-2-(3-phenylpyrazol-1-yl)furo[3,2-d]pyrimidine-6-carboxamide], with 943 nM; and `O=C(c1cc2nc(Nc3cc(-c4ccccc4)[nH]n3)nc(N3CCOCC3)c2o1)N1CCCC1` [Compound 54, [4-morpholino-2-[(5-phenyl-1H-pyrazol-3-yl)amino]furo[3,2-d]pyrimidin-6-yl]-pyrrolidin-1-yl-methanone; hydrogen chloride], with 66 nM.

As for `c1ccc(-c2ccn(-c3nc(N4CCOCC4)c4oc(-c5nccs5)cc4n3)n2)cc1` [Compound 207, 4-morpholino-2-(3-phenylpyrazol-1-yl)-6-thiazol-2-yl-furo[3,2-d]pyrimidine], the IC50 stood at 6.6 nM. As for `CN1CCC(c2cc3nc(Nc4cc(-c5ccccc5)n[nH]4)nc(N4CCOCC4)c3o2)CC1` [Compound 32], the IC50 is 116 nM. `Cc1cncc(-c2ccn(-c3nc(N4CCOCC4)c4oc(-c5ccccn5)cc4n3)n2)c1` [Compound 200, 2-[3-(5-methyl-3-pyridyl)pyrazol-1-yl]-4-morpholino-6-(2-pyridyl)furo[3,2-d]pyrimidine]: the IC50 turned out to be 3080 nM. In the case of `O=C(c1cc2nc(Nc3cc(-c4ccccc4)n[nH]3)nc(N3CCOCC3)c2o1)N1CCC1` [Compound 53, azetidin-1-yl(4-morpholino-2-((3-phenyl-1H-pyrazol-5-yl)amino)furo[3,2-d]pyrimidin-6-yl)methanone hydrochloride] it was 60 nM; in that of `Cc1cccc(-c2cnn(-c3nc(N4CC(F)(F)OC(F)(F)C4)c4oc(-c5cccnc5)cc4n3)c2)c1` [Compound 133, 6-(pyridin-3-yl)-4-(2,2,6,6-tetrafluoromorpholino)-2-(4-(m-tolyl)-1H-pyrazol-1-yl)furo[3,2-d]pyrimidine], > 20000 nM.

For the compound `Cc1cccc(-c2ccn(-c3nc(N4CCOCC4)c4oc(-c5ccn(C)n5)cc4n3)n2)c1` [Compound 189, 6-(1-methylpyrazol-3-yl)-4-morpholino-2-[3-(m-tolyl)pyrazol-1-yl]furo[3,2-d]pyrimidine], the IC50 was determined as 0.8 nM. In the case of `Cc1ccccc1-c1cc(Nc2nc(N3CCOCC3)c3oc(-c4ccncc4)cc3n2)[nH]n1` [Compound 2, 4-morpholino-N-[5-(o-tolyl)-1H-pyrazol-3-yl]-6-(4-pyridyl)furo[3,2-d]pyrimidin-2-amine, hydrogen chloride] it was 64.8 nM; in that of `c1ccc(-c2cc3nc(Nc4cc(-c5ccncc5)n[nH]4)nc(N4CCOCC4)c3o2)nc1` [Compound 28, 4-morpholino-6-(pyridin-2-yl)-N-(3-(pyridin-4-yl)-1H-pyrazol-5-yl) furo[3,2-d] pyrimidin-2-aminehydrochloride], 677 nM; in that of `[2H]C([2H])([2H])c1cccc(-c2ccn(-c3nc(N4CCOCC4)c4oc(-c5ccn(C)n5)cc4n3)n2)c1` [Compound 216, 6-(1-methylpyrazol-3-yl)-4-morpholino-2-[3-[3-(trideuteriomethyl)phenyl]pyrazol-1-yl]furo[3,2-d]pyrimidine], 0.8 nM. Then `Fc1cccc(-c2cc(Nc3nc(N4CCOCC4)c4occc4n3)[nH]n2)c1` [Compound 7, N-[5-(3-fluorophenyl)-1H-pyrazol-3-yl]-4-morpholino-furo[3,2-d]pyrimidin-2-amine, hydrogen chloride], with 451 nM; and `CONC(=O)c1cc2nc(Nc3cc(-c4ccccc4)[nH]n3)nc(N3CCOCC3)c2o1` [Compound 58, N-methoxy-4-morpholino-2-[(5-phenyl-1H-pyrazol-3-yl)amino]furo[3,2-d]pyrimidine-6-carboxamide, hydrogen chloride], with 95 nM. As for `Cc1cccc(-c2ccn(-c3nc(N4CCOCC4)c4oc(-c5ccccn5)cc4n3)n2)n1` [Compound 187, 2-[3-(6-methyl-2-pyridyl)pyrazol-1-yl]-4-morpholino-6-(2-pyridyl)furo[3,2-d]pyrimidine], the IC50 was 2390 nM. For `Cc1cc(-c2cc3nc(-n4ccc(-c5ccccc5)n4)nc(N4CCOCC4)c3o2)on1` [Compound 206, 6-(3-methylisoxazol-5-yl)-4-morpholino-2-(3-phenylpyrazol-1-yl)furo[3,2-d]pyrimidine], the IC50 stood at 7 nM.

As to `Cc1c(-c2ccccn2)oc2c(N3CCOCC3)nc(-n3ccc(-c4ccccc4)n3)nc12` [Compound 179, 7-methyl-4-morpholino-2-(3-phenyl-1H-pyrazol-1-yl)-6-(pyridin-2-yl)furo[3,2-d]pyrimidine], the IC50 is ≥ 10000 nM.

As for `Cn1ccc(-c2cc3nc(-n4cc(-c5cccc(Cl)c5)cn4)nc(N4CCOCC4)c3o2)n1` [Compound 192, 2-(4-(3-chlorophenyl)-1H-pyrazol-1-yl)-6-(1-methyl-1H-pyrazol-3-yl)-4-morpholinofuro[3,2-d]pyrimidine], the IC50 is 21.7 nM. For `CN1CCC(c2cc3nc(Nc4cc(-c5ccncc5)n[nH]4)nc(N4CCOCC4)c3o2)CC1` [Compound 34, 6-(1-methylpiperidin-4-yl)-4-morpholino-N-(3-(pyridin-4-yl)-1H-pyrazol-5-yl)furo[3,2-d]pyrimidin-2-amine hydrochloride], the IC50 is 10 nM.

The IC50 is the concentration that inhibits the measured activity by half.

Values taken from US20230146395A1, “Substituted Pyrimidines and Uses Thereof” (Verge Analytics, Inc., priority 2020, published 2023).
